In ChEMBL document CHEMBL1201862, “PubChem BioAssay data set” (2004):
Active and inactive are the calls of the source.

Experiments:
[1] = molecular target: T1, Beta-2 adrenergic receptor (Homo sapiens, UniProt P07550); test: beta2AR agonists driving receptor internalization, dose response, cell-based, FAP fluorogen, flow cytometry, cherry pick 1 (AID 588763); format: functional
[2] = molecular target: T1, Beta-2 adrenergic receptor; test: Dose response for HTS for Beta-2AR agonists via FAP method from Powderset3.; format: functional
[3] = molecular target: T2, Exodeoxyribonuclease V (Escherichia coli (strain K12), UniProt P04993+P07648+P08394); test: E. coli RecBCD inhibitors, dose response, counter-screen for AddAB inhibitor project, absorbance, V66 E. coli, mutant T4 phage (AID 492957); format: functional, cell-based, Escherichia coli str. K-12 substr. MG1655
T2 sequence (P04993 whole entry): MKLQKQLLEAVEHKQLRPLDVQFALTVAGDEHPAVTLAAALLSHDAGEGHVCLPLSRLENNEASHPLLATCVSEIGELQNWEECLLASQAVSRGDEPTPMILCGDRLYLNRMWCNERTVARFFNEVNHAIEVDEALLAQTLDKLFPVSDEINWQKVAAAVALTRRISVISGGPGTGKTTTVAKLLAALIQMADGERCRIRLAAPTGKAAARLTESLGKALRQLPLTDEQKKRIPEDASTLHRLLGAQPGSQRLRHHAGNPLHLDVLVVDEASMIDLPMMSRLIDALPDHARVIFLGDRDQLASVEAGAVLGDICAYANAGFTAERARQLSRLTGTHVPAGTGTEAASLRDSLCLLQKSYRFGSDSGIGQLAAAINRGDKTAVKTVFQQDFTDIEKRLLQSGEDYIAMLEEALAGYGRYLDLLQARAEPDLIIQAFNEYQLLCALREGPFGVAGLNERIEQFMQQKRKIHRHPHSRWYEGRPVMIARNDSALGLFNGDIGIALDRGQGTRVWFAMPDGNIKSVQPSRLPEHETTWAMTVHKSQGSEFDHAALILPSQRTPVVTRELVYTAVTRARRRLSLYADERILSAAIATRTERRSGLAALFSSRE
T2 sequence (P07648 whole entry): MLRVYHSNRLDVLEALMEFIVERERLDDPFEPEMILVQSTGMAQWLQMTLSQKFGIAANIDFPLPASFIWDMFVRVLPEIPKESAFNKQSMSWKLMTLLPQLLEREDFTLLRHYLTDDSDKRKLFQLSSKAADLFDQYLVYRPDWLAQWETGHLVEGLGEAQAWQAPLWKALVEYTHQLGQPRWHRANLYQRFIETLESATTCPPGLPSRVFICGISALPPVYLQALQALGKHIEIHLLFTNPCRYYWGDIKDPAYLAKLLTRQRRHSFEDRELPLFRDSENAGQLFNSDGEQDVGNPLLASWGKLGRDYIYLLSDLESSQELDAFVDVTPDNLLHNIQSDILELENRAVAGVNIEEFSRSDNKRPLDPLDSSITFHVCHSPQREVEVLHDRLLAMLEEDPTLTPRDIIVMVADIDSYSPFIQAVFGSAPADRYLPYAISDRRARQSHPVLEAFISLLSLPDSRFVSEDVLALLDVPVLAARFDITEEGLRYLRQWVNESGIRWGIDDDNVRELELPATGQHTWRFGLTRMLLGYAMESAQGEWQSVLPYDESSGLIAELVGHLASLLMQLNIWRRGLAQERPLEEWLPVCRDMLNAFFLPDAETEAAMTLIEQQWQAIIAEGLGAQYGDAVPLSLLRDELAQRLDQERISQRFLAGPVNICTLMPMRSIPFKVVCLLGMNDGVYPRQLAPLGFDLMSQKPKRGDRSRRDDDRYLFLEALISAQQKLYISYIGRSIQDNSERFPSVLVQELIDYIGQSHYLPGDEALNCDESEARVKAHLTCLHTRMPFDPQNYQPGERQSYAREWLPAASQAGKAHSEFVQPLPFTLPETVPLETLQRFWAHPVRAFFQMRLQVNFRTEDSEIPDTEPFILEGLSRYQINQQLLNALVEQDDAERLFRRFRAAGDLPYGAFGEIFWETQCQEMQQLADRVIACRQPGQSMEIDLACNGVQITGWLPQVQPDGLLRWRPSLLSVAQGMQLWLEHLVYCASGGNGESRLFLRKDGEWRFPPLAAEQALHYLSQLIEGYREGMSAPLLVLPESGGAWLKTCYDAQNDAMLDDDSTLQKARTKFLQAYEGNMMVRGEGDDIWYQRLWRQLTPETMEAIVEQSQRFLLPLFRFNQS
T2 sequence (P08394 whole entry): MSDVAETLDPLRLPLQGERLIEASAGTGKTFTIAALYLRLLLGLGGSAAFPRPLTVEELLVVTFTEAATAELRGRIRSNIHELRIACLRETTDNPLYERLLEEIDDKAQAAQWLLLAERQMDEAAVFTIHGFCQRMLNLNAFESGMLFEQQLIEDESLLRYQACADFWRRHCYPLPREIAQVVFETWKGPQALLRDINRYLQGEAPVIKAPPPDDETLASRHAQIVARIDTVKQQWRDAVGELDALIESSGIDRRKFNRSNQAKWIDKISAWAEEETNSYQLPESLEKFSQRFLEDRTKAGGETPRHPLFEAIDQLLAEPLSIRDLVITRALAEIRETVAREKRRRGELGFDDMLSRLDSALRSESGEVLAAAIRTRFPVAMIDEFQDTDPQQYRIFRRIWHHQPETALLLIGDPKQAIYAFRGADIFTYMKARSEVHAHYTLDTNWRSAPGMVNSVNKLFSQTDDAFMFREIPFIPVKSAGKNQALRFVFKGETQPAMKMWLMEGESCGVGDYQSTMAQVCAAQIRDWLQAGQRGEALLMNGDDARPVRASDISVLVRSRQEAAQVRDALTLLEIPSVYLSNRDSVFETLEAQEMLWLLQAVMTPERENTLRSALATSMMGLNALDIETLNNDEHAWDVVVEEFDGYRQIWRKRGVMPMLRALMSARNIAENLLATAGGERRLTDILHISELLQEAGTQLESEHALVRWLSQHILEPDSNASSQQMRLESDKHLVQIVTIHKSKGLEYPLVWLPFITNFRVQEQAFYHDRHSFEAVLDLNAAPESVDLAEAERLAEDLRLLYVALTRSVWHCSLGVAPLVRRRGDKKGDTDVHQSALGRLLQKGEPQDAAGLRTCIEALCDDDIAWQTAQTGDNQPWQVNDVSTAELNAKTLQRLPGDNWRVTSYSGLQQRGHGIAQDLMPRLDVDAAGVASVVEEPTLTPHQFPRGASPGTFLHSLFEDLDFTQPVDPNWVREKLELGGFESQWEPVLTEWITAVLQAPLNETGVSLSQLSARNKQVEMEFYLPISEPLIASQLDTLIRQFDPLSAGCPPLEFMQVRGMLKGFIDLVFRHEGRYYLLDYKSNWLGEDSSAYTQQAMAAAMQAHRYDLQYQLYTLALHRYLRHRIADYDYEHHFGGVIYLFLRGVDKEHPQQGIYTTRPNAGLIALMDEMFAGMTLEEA

[4] = Counterscreen for AddAB inhibitors: absorbance-based bacterial cell-based high throughput dose response assay for inhibitors of bacterial viability. [Related pubchem assays (depositor defined):AID435030, AID449728, AID449731, AID488942, AID488955, AID488956]; format: functional
[5] = molecular target: Albumin (Bos taurus, UniProt P02769); test: Counterscreen for inhibitors of T-cell receptor (TCR)-CD3 interaction: Fluorescence-based biochemical high throughput dose response assay to identify inhibitors of T-cell receptor (TCR)-CD3 interaction using a TAMRA-labeled BSA probe.; format: functional
[6] = molecular target: Fructose-bisphosphate aldolase (Mycobacterium tuberculosis, UniProt P9WQA3); test: Fluorescence-based biochemical high throughput dose response assay for inhibitors of the fructose-bisphosphate aldolase (FBA) of M. tuberculosis.; format: functional
[7] = molecular target: T3, Probable nicotinate-nucleotide adenylyltransferase (Staphylococcus aureus (strain N315), UniProt P65502); format: functional, Staphylococcus aureus subsp. aureus N315;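 for IC50 Mean: confirmatory dose-response retesting of NadD inhibitor hits first found in an ultra-high-throughput screen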
[8] = system: Streptococcus sp. 'group A'; test: growth inhibition of control SK(-) GAS strain, dose response, counter-screen for streptokinase expression inhibitor project, luminescence, kanamycin, BacTiterGlo, confirmation (AID 1900); format: functional, organism-based
[9] = molecular target: T4, Streptokinase A (Streptococcus pyogenes serotype M1, UniProt P10520); test: S. pyogenes streptokinase expression inhibitors, potency, dose response, plasminogen activation absorbance, OD405 (AID 1914); format: functional, Streptococcus pyogenes M1 GAS;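 note: secreted streptokinase activity via plasminogen activation per viability signal from cell pellet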
T4 sequence (P10520 whole entry): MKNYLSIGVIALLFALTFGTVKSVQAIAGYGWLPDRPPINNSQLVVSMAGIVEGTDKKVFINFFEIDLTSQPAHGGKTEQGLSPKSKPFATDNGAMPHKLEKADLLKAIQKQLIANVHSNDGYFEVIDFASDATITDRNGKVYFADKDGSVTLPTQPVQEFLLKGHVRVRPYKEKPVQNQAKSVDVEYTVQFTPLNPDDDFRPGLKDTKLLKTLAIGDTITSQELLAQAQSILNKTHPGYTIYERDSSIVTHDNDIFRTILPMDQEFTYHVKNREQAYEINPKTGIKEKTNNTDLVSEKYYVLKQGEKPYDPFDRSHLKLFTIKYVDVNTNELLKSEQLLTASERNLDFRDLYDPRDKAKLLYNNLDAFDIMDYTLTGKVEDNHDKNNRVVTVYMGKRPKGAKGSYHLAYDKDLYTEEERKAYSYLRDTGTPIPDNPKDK

[10] = system: Streptococcus; test: Group A Streptococcus viability loss, dose response, counter-screen for streptokinase expression inhibitor project, luminescence, BacTiterGlo (AID 1915); format: functional, organism-based;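 note: potency for reduction of bacterial viability or growth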
[11] = molecular target: T3, Probable nicotinate-nucleotide adenylyltransferase; format: functional, Staphylococcus aureus subsp. aureus N315; conditions: read-out: IC50_Mean
[12] = molecular target: T5, Rac GTPase-activating protein 1 (Homo sapiens, UniProt Q9H0H5); test: MgcRacGAP GTPase-activating activity inhibitors, confirmation, biochemical, ADP Hunter fluorescence, primary and confirmatory (AID 624330); format: functional
T5 sequence (Q9H0H5 whole entry): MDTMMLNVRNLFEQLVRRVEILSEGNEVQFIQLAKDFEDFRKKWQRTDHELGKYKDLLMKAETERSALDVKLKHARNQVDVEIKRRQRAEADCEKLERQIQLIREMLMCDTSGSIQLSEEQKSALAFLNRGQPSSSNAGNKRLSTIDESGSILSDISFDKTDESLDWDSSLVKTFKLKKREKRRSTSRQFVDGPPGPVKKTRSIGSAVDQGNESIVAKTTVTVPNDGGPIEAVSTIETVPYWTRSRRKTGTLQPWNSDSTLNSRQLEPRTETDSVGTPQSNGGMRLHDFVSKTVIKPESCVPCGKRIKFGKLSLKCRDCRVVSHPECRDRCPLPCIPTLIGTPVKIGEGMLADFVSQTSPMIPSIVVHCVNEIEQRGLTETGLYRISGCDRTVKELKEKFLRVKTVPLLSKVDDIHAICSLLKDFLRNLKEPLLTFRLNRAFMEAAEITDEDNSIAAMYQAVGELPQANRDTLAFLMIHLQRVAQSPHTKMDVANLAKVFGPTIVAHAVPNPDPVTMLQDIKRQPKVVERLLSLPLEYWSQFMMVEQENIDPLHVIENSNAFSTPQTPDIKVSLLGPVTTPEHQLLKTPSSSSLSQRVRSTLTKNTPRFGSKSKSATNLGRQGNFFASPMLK

[13] = molecular target: Nonstructural protein 1 (Influenza A virus, UniProt Q194T2); format: functional, Influenza A virus (A/California/07/2009(H1N1))
[14] = HeLa cell cytotoxicity, dose response, cytotoxicity control for MgcRacGAP inhibitor project (AID 624300); format: functional
[15] = inhibitors of TNFa-stimulated NF-kB luciferase reporter, dose response, selectivity assay for EBV LMP1 NF-kB inhibitor project, HEK293 LMP1 reporter cells, dry powder, set 2 (AID 624369); format: functional
[16] = HEK293 cell viability, dose response, counter-screen for EBV LMP1 inhibitor project, dry powder, set 2 (AID 624374); format: functional
[17] = molecular target: Protein S100-A4 (Homo sapiens, UniProt P26447); test: S100A4-myosin IIA binding inhibitor potency, dose response, biochemical, fluorescence polarization, cherry-picked hits (AID 687001); format: functional
[18] = system: HeLa; test: HeLa cell cytotoxicity, dose response, cytotoxicity control, ATP luminescence, cherry-pick samples (AID 687004); format: functional, cell-based; conditions: Homo sapiens
[19] = molecular target: Protein Wnt-3a (Mus musculus, UniProt P27467); test: SAR analysis of small molecule antagonists of Gli-SUFU in a Wnt3a luminescent reporter assay.; format: functional
[20] = HepG2 cell cytotoxicity, dose response, cytotoxicity control, cherry-picks, set 5 (AID 1053118); format: functional, cell-based

T1 sequence (P07550 whole entry): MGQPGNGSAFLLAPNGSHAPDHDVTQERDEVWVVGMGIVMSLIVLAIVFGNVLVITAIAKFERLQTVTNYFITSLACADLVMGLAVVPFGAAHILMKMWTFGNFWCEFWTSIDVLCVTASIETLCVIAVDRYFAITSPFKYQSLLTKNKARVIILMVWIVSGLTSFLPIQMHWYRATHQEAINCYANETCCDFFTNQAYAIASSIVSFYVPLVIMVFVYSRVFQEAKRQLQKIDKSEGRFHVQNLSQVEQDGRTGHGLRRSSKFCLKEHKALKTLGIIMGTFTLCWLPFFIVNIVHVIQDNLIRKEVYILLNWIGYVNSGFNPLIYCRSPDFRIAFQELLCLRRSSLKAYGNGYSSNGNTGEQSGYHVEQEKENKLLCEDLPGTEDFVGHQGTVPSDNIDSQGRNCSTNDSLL
T3 sequence (P65502 whole entry): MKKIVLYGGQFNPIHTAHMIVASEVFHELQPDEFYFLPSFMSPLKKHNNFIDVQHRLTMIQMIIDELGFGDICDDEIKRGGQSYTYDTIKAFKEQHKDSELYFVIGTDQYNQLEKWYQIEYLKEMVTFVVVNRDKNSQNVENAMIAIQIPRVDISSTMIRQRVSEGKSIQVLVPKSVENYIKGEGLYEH
Nonstructural protein 1, sequence (Q194T2 whole entry): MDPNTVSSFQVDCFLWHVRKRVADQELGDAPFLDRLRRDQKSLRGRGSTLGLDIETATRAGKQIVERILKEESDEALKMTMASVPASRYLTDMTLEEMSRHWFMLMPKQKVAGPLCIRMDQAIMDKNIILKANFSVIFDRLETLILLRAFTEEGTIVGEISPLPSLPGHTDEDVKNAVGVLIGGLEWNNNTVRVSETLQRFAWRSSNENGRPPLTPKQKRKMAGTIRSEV
Protein S100-A4, sequence (P26447 whole entry): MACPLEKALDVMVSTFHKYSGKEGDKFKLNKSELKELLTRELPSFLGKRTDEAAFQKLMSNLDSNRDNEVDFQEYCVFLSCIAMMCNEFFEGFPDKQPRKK
Protein Wnt-3a, sequence (P27467 whole entry): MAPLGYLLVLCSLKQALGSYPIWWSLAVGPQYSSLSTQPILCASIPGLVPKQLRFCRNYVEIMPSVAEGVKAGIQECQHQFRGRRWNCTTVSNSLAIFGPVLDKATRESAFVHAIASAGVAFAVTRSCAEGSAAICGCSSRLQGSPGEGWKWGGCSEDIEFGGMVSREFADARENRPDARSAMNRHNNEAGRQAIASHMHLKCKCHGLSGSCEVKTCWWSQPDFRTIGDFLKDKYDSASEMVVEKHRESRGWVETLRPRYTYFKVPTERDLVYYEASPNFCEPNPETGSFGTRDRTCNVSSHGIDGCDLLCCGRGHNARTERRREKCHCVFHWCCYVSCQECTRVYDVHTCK
Albumin, sequence (P02769 whole entry): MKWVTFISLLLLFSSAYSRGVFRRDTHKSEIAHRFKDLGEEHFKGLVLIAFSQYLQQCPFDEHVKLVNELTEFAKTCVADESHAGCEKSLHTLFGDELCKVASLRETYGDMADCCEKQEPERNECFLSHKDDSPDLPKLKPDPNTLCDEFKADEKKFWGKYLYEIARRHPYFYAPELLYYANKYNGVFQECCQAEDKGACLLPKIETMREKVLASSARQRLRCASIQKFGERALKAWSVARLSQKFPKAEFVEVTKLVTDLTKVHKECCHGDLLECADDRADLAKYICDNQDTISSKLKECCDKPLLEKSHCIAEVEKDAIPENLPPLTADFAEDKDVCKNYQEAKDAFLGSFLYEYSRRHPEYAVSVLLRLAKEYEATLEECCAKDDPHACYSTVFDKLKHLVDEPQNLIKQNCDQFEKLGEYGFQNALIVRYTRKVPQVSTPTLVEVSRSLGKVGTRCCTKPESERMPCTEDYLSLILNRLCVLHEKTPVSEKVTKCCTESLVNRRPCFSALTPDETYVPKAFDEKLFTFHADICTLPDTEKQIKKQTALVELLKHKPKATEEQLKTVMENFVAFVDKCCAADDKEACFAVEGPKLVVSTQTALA
Fructose-bisphosphate aldolase, sequence (P9WQA3 whole entry): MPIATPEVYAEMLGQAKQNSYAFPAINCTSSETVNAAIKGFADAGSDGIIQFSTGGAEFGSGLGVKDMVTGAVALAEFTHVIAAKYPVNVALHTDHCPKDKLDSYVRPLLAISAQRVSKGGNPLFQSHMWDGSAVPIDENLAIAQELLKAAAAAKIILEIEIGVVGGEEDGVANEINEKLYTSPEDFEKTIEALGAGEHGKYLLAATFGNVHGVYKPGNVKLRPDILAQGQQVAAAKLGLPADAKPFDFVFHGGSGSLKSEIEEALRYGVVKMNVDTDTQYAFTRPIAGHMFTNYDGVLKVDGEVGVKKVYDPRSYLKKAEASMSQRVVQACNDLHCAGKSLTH

SMILES: Cc1ccc(OCc2cc(C(=O)N(C)Cc3cnn(-c4ccccc4C)c3)no2)cn1
- EC50 [1]: 305 nM (active)
- EC50 [2]: 55.5 nM (active)

SMILES: O=C(NNC(=O)C1CCN(S(=O)(=O)c2ccccc2C(F)(F)F)CC1)c1ccccc1O
- IC50 [3]: > 119 µM (inactive)
- IC50 [4]: > 119 µM (inactive)
- IC50 [5]: > 94.1 µM (inactive)

SMILES: COc1ccc2nc(NCCCNC(=O)c3cc(OC)c(OC)c(OC)c3)c(C#N)cc2c1
- IC50 [6]: 1.78 µM (active)

SMILES: Cc1c(C(=O)NNC(=O)c2ccccc2O)oc2ccc(Br)cc12
- IC50 [7]: 15.3 µM (active)
- EC50 [8]: 8.43 µM (active)
- IC50 [3]: > 119 µM (inactive)
- IC50 [4]: > 119 µM (inactive)
- EC50 [9]: > 150 µM (not active)
- EC50 [10]: 8.5 µM (active)
- IC50 [11]: 45.8 µM (active)

SMILES: CN(C)c1ccc(C=c2c3ccccc3n3c2cc(-c2ccc(Cl)cc2)[n+]3C)cc1
- IC50 [12]: 44.9 µM (active)
- IC50 [13]: 5.85 µM (active)
- CC50 [14]: 18.9 µM (active)

SMILES: COc1cccc(C#Cc2ccc([C@@H]3[C@@H](C#N)N(C(=O)c4ccccn4)[C@@H]3CO)cc2)c1
- AbsAC35 [15]: 84.96 µM
- AbsAC35 [16]: 328.8 µM

SMILES: CSCc1cc(C(=O)NC2CC2)c(N)s1
- AC50 [17]: 17.5 µM (active)

SMILES: COc1cccc(S(=O)(=O)N2C[C@@H](O)COC[C@H]3O[C@H](CC(=O)Nc4ccccc4)CC[C@@H]32)c1
- AC50 [18]: > 52 µM (inactive)

SMILES: O=C(Nc1cc(N2CCCCC2)ncn1)c1ccco1
- IC50 [19]: > 21.8 µM (inactive)

SMILES: CO[C@H]1CN(C)C(=O)c2ccc(NC(=O)Nc3ccc(Cl)c(Cl)c3)cc2OC[C@H](C)NC[C@H]1C
- AC50 [20]: 13.5 µM (active)
